Measurements reported in patent publication US20260216180A1, “QUINOLINE DERIVATIVE COMPOUNDS OR PHARMACEUTICALLY ACCEPTABLE SALT THEREOF, PREPARATION METHOD THEREFOR AND USE THEREOF” (JIANGSU CAREPHAR PHARMACEUTICAL CO.,LTD., priority 2023, published 2026).

Assays:
Type in all cases: cell-based
[1] = tested on: miR-124; assay: Regulation of miR-124 expression in a PBMC in vitro model (qPCR); details: 5 μM test compound, 24 h, human PBMC stimulated with PHA-L and IL-2; miR-191 internal reference; read-out: Relative expression of miR-124, fold change compared with DMSO-treated cells
Procedure: Pharmacological Activity Test: Regulation of miR-124 Expression by the Quinoline Derivatives in a PBMC In Vitro Model
• a. human PBMC cells • b. PHA-L • c. IL-2 • d. mirVana™ miRNA Extraction kit • e. TaqMan Advanced miRNA cDNA Synthesis Kit • f. TaqMan Fast Gene Expression Master Mix • g. TaqMan Advanced miRNA Assay (mir191) • h. TaqMan Advanced miRNA Assay (mir124)
Human PBMC cells were resuscitated. The cell suspension was transferred to a 75 cm^2 culture flask containing 13 mL of culture medium. The cells were cultured overnight in a 37° C., 5% CO2 incubator. The cell suspension was then collected in a conical flask, centrifuged at 1200 rpm for 5 minutes, and the supernatant was discarded. The cells were resuspended in 1 mL of fresh culture medium, and then the cell clumps were gently blown apart and inoculated into a 6-well plate at a density of 4*10^6 cells/mL. 5 μg/mL PHA-L and 10 ng/mL IL-2 were added to each well. The cells were incubated in the incubator for 48 hours. 5 μM of the test compound was added to each well of a 6-well plate, and 0.1% DMSO was added to the blank control wells, and the plate was incubated at 37° C. for 24 h. Cells were collected, Total RNA was isolated and extracted according to the procedure of the mirVana™ miRNA Extraction Kit, and cDNA was prepared according to the procedure of the TaqMan Advanced miRNA cDNA Synthesis Kit. MiR-191 was used as the internal reference gene for qPCR test.
That is, RNA sample→poly (A) tailing reaction→adapter reaction→reverse transcription (RT) reaction→miR-amplification reaction→qPCR test.
The qPCR procedure includes: 50° C. 2 min; 95° C. 20 s; 95° C. 1 s, a 60° C. 20 s, 40 cycles.
The relative gene expression was calculated using the following formula: ΔCt=Ct (miR-124)−Ct (miR-191)
Relative miRNA expression=2^−ΔCt.

[2] = tested on: IL-6; assay: Macrophage IL-6 secretion after LPS (ELISA); details: Bone marrow macrophage, compared to 0 μM, mouse bone marrow macrophages, 200 ng/ml LPS, 6 hours, read-out: Inhibition rate of IL-6 at 10 μM concentration
Procedure: (§1) Pharmacological Activity Test: Regulatory Effect of Quinoline Derivatives on Macrophage IL-6 and TNF-α Secretion
(§2) Mouse bone marrow cells were isolated from the femur and tibia bone marrow of […] mice of 6-8 week old raised under SPF conditions and inoculated in 6-well plates at a density of 1.5*10^6 cells/well/2 mL. 50 ng/mL M-CSF was added to each well and the cells were cultured in a CO2 incubator for 3 days. On the third day, the culture medium was replaced with fresh medium containing 100 ng/mL M-CSF and the culture was continued for 3 days. On the 6th day, the supernatant was removed and the cells were washed once with DPBS. After adding 1 mL of DPBS, the macrophages were harvested using a cell scraper, centrifuged at 400 g for 10 min, and the supernatant was discarded. The cells were resuspended in fresh culture medium containing 50 ng/mL M-CSF, inoculated in a 96-well plate at a density of 2*10^4 cells/well/200 μL, and cultured in a CO2 incubator overnight. 0, 3, 5, […] of the test compound were added to each well (wherein well 0 contains 0.1% DMSO) respectively and incubate in a CO2 incubator for 1 hour. Then 200 ng/ml LPS was added and the cell supernatant was collected after 6 hours of co-culture. ELISA kits were used to detect the secretion levels of IL-6 and TNF-α.

[3] = tested on: TNF-α; assay: Macrophage TNF-α secretion after LPS (ELISA); details: Bone marrow macrophage, compared to 0 μM, mouse bone marrow macrophages, 200 ng/ml LPS, 6 hours, read-out: Inhibition rate of TNFα at 10 μM concentration
Procedure: as §1, §2

FC(F)(F)C1(c2ccc(Nc3ccc4cccc(Cl)c4n3)cn2)CC1 [Compound 7, 8-chloro-N-(6-(1-(trifluoromethyl)cyclopropyl)pyridine-3-yl)quinolin-2-amine]
fold induction at 5 µM [1]: 1.8

CC(C)(c1ccc(Nc2ccc3cccc(Cl)c3n2)cc1)C(F)(F)F [Compound 3, 8-chloro-N-(4-(1,1,1-trifluoro-2-methylprop-2-yl)phenyl)quinolin-2-amine]
fold induction at 5 µM [1]: 7.33

FC(F)(F)C1(c2ccc(Nc3ccc4cccc(Cl)c4n3)nc2)CC1 [Compound 2, 8-chloro-N-(5-(1-(trifluoromethyl)cyclopropyl)pyridin-2-yl)quinolin-2-amine]
fold induction at 5 µM [1]: 8.35

Fc1cc(Cl)c2nc(Nc3cc(C4(C(F)(F)F)CC4)ccn3)ccc2c1 [Compound 17, 8-chloro-6-fluoro-N-(4-(1-(trifluoromethyl)cyclopropyl)pyridin-2-yl)quinolin-2-amine]
fold induction at 5 µM [1]: 56.4

FC(F)(F)C1(c2cnc(Nc3ccc4cccc(Cl)c4n3)cn2)CC1 [Compound 14, 8-chloro-N-(5-(1-(trifluoromethyl)cyclopropyl)Pyrazin-2-yl)quinolin-2-amine]
fold induction at 5 µM [1]: 8.1

CS(=O)(=O)c1cc(Cl)c2nc(Nc3ccc(C4(C(F)(F)F)CC4)cc3)ccc2c1 [Compound 21]
fold induction at 5 µM [1]: 21.2

FC(F)(F)C1(c2cnc(Nc3ccc4cccc(Cl)c4n3)nc2)CC1 [Compound 24, 8-chloro-N-(5-(1-(trifluoromethyl)cyclopropyl)pyrimidin-2-yl)quinolin-2-amine]
fold induction at 5 µM [1]: 1.99

FC(F)C1(c2ccc(Nc3ccc4cccc(Cl)c4n3)cc2)CC1 [Compound 1, 8-chloro-N-(4-(1-(difluoromethyl)cyclopropyl)phenyl)quinolin-2-amine]
fold induction at 5 µM [1]: 1.5
inhibition at 10 µM [2]: 81%
inhibition at 10 µM [3]: 85%

Cc1cc(Nc2ccc3cccc(Cl)c3n2)ncc1C1(C(F)(F)F)CC1 [Compound 13, 8-chloro-N-(4-methyl-5-(1-(trifluoromethyl)cyclopropyl)pyridin-2-yl)quinolin-2-amine]
fold induction at 5 µM [1]: 5.9

COc1cc(C2(C(F)(F)F)CC2)ccc1Nc1ccc2cccc(Cl)c2n1 [Compound 8, 8-chloro-N-(2-methoxy-4-(1-(trifluoromethyl)cyclopropyl)phenyl)quinolin-2-amine]
fold induction at 5 µM [1]: 6

N#Cc1cc(Cl)c2nc(Nc3ccc(C4(C(F)(F)F)CC4)cn3)ccc2c1 [Compound 19, 8-chloro-2-((5-(1-(trifluoromethyl)cyclopropyl)pyridin-2-yl)amino)quinolin-6-nitrile]
fold induction at 5 µM [1]: 118

FC(F)(F)C1(c2cccc(Nc3ccc4cccc(Cl)c4n3)c2)CC1 [Compound 9, 8-chloro-N-(3-(1-(trifluoromethyl)cyclopropyl)phenyl)quinolin-2-amine]
fold induction at 5 µM [1]: 4.24

N#Cc1cc(Cl)c2nc(Nc3ccc(C4(C(F)(F)F)CC4)cc3)ccc2c1 [Compound 20, 8-chloro-2-((4-(1-(trifluoromethyl)cyclopropyl)phenyl)amino)quinolin-6-carbonitrile]
fold induction at 5 µM [1]: 15.2

Fc1cc(Cl)c2nc(Nc3ccc(C4(C(F)(F)F)CC4)cn3)ccc2c1 [Compound 10, 8-chloro-6-fluoro-N-(5-(1-(trifluoromethyl)cyclopropyl)pyridin-2-yl)quinolin-2-amine]
fold induction at 5 µM [1]: 6.9

FC(F)(F)C1(c2ccc(Nc3ccc4cccc(Cl)c4n3)cc2)CC1 [Compound 4, 8-chloro-N-(4-(1-(trifluoromethyl)cyclopropyl)phenyl)quinolin-2-amine]
fold induction at 5 µM [1]: 15.9
inhibition at 10 µM [2]: 85%
inhibition at 10 µM [3]: 84%

CC(C)(c1ccc(Nc2ccc3cccc(Cl)c3n2)cc1)C(F)F [Compound 22, 8-chloro-N-(4-(1,1-difluoro-2-methylpropan-2-yl)phenyl)quinolin-2-amine]
fold induction at 5 µM [1]: 1.96

Fc1cc(Nc2ccc3cccc(Cl)c3n2)ncc1C1(C(F)(F)F)CC1 [Compound 15, 8-chloro-N-(4-fluoro-5-(1-(trifluoromethyl)cyclopropyl)pyridin-2-yl)quinolin-2-amine]
fold induction at 5 µM [1]: 1.99

FC(F)(F)C1(c2ccnc(Nc3ccc4cccc(Cl)c4n3)c2)CC1 [Compound 6, 8-chloro-N-(4-(1-(trifluoromethyl)cyclopropyl)pyridin-2-yl)quinolin-2-amine]
fold induction at 5 µM [1]: 7.28
